According to patent US20230220021A1, “CYCLIC PEPTIDE INHIBITORS OF PSD-95 AND USES THEREOF” (University of Copenhagen, priority 2020, published 2023):
Where a SMILES comes first, the peptide text is derived from it. [ ]: non-standard residue; d: D form.

Tests used:
PSD-95-PDZ2 [1] = target: T1, PSD-95-PDZ2 (Homo sapiens, UniProt P78352); test: Fluorescence polarization (FP) competition assay against cyclic nNOS TAMRA probe; type: binding; conditions: for Relative Ki (Ki mut/Ki WT): FP inhibition constant normalized to WT value; for Ki: FP competition, cyclic nNOS TAMRA probe, mean of triplicates, N.B. = not binding, read-out: Ki
T1 construct: 7xHis (N); made in house; host or cells: Escherichia coli B21 pLys (for the mutants, 'as previously described')

PSD-95-PDZ2 [2] = target: T2, PSD-95-PDZ2 (Homo sapiens, UniProt P78352, V178C); test: SPOT peptide array screening with TAMRA labelled PSD-95-PDZ2; type: binding; conditions: SPOT array, TAMRA labelled PSD-95-PDZ2-V178C, normalized to WT
T2 construct: screened with the TAMRA labelled PSD-95-PDZ2-V178C domain; 7xHis (N); made in house
Procedure: SPOT peptide array synthesis. To generate the cyclic nNOSβ-hairpin arrays, we used the Intavis MultiPep spotter (Intavis Bioanalytical instruments). The membranes employed in this assay were SynthoPlan APEG CE (standard amino-modified acid stable sellulose membrane with a PEG-spacer), 10×15 cm with a loading of 400 nmol cm^−2. Solutions of 0.3 M Fmoc-AA-OH and 0.3 M Oxyma Pure were prepared in N-methyl-2-pyrrolidone (NMP). The activator solution consisted of 0.3 M DIC and 0.3 M of 2,4,6-trimethylpyridine (Collidine) in NMP. The capping solution consisted of a solution of 1 M acetic anhydride and 0.05 M of 4-dimethylaminopyridine (DMAP) in NMP. The deprotection solution consisted of 20% piperidine in NMP. AA couplings were performed 1 h,4 times. Deprotection of the Fmoc groups was performed 15min,2 times. Membrane washing between couplings or deprotections was performed with NMP and ethanol. Elongation of peptides in cellulose membrane was started by coupling first the Fmoc-PEG(9)-OH (Iris Biotech) and the subsequent mixture of Fmoc-Gly-OH (25%) and Boc-Gly-OH (75%) to lower the total loading of the membrane. Afterwards, the resin was capped with the capping solution and extensively washed and soaked in bromophenol blue (BPB) as a quality control to reveal the SPOTS with a functional amino group. Then, we coupled the quasi-orthogonal group Fmoc-Glu-PP, and carried out the rest of the synthesis until peptide completion. The cellulose bound linear peptides were finally treated with a solution of 95% DCM, 3% TIPS and 2% TFA 3 times, 20 min. to remove the quasi-orthogonal group. Afterwards, the membrane was washed 5 times with DCM and neutralized with 5% DIPEA in DCM. The membrane was then washed 5 more times with DCM, 5 times with NMP and cyclized with 0.3M PyAOP and 0.3M of DIPEA in DMF for 3 h or overnight. Finally, the membrane was dried with DCM and the side-chain protecting groups were cleaved with the standard deprotection cocktail (95% TFA, 2.5% H2O and 2.5% TIPS) or with reagent K [TFA 82.5%, phenol 5%, H2O 5%, thioanisole 5% and 1,2-ethanedithiol (EDT) 2.5%] for 3 h.
SPOT membrane screening. Membranes were incubated with PBS pH 7.2+0.5% bovine serum albumin (BSA) for 1 h. After the incubation period, the membrane was dried and scanned with an Amershan Typhoon scanner, at 400V, Cy3 wavelength (532 nm). A TIF file of the screening and a file with the blank values were generated using the Image Quant software. Afterwards, a solution of 50 nM of TAMRA labelled PSD-95-PDZ2 domain was prepared in PBS pH 7.2+0.5% BSA and was added to the membrane. The membrane was left incubating in a Polymax 1040 rocking table for 1 h protected from the light. Passed the incubation time, the excess of labelled protein was removed by washing the membrane 3 times with PBS+0.5% BSA. Finally, the membrane fluorescence values were measured with the Amershan Typhoon scanner at 400V, Cy3 wavelength (532 nm). Using the Image Quant software, the TIF image of the screening and a file with the fluorescence values of the peptides with the TAMRA labelled PSD-95-PDZ2 were generated. The blank was then subtracted from the fluorescence values of the peptides screened against the TAMRA labelled PSD-95-PDZ2.
A deep mutational scan was performed on the WT scaffold, exchanging each AA to the remaining 19 L-AAs. Each array contained three copies of the individual peptides as technical replicates. Additionally, three controls were included in the design: the cyclic nNOS β-hairpin WT control (positive control), a linear nNOS peptide (cyclization control) and a cyclic nNOS β-hairpin with a F111V substitution (negative control previously tested in FP competition assays). For array screening, a mutation in PSD-95-PDZ2 residue V178 (PSD-95-PDZ2-V178C) was introduced, which was subsequently labelled with TAMRA maleimide. […]

CC[C@H](C)[C@@H]1NC(=O)[C@H]([C@@H](C)O)NC(=O)[C@H](CCCCN)NC(=O)[C@@H]2CCCN2C(=O)[C@H]([C@@H](C)O)NC(=O)CNC(=O)[C@H](CC(=O)O)NC(=O)CNC(=O)[C@H]([C@@H](C)O)NC(=O)[C@H](Cc2ccccc2)NC(=O)[C@H]([C@@H](C)O)NC(=O)[C@H]([C@@H](C)O)NC(=O)[C@H](CCC(=O)O)NC(=O)[C@H](CC(C)C)NC(=O)[C@H](Cc2c[nH]cn2)NC(=O)[C@H]([C@@H](C)O)NC(=O)[C@H](CCC(N)=O)NC(=O)CNC(=O)[C@H]2CCCN2C(=O)[C@H](CCCNC(=N)N)NC(=O)[C@H](CCCNC(=N)N)NC(=O)[C@H](C(C)C)NC(=O)[C@H](CCCNC(=N)N)NC1=O [compound 45] (cyclo(THLETTFTGDGTPKTIRVRR[dP]GQ))
Relative Ki (Ki mut/Ki WT) (PSD-95-PDZ2 [1]): 1.31 | Normalized SPOT fluorescence (Mut/WT) (PSD-95-PDZ2 [2]): 3.50

CC[C@H](C)[C@@H]1NC(=O)[C@H]([C@@H](C)O)NC(=O)[C@H](CCCCN)NC(=O)[C@@H]2CCCN2C(=O)[C@H]([C@@H](C)O)NC(=O)CNC(=O)[C@H](CC(=O)O)NC(=O)CNC(=O)[C@H]([C@@H](C)O)NC(=O)[C@H](Cc2ccccc2)NC(=O)[C@H]([C@@H](C)O)NC(=O)[C@H]([C@@H](C)O)NC(=O)[C@H](CCC(=O)O)NC(=O)[C@H](CC(C)C)NC(=O)[C@H](C)NC(=O)[C@H]([C@@H](C)O)NC(=O)[C@H](CCC(N)=O)NC(=O)CNC(=O)[C@H]2CCCN2C(=O)[C@H](CCC(N)=O)NC(=O)[C@H]([C@@H](C)O)NC(=O)[C@H](C(C)C)NC(=O)[C@H](CCCNC(=N)N)NC1=O [compound 56] (cyclo(TALETTFTGDGTPKTIRVTQ[dP]GQ))
Relative Ki (Ki mut/Ki WT) (PSD-95-PDZ2 [1]): 1.37 | Normalized SPOT fluorescence (Mut/WT) (PSD-95-PDZ2 [2]): 0.38

CC[C@H](C)[C@@H]1NC(=O)[C@H]([C@@H](C)O)NC(=O)[C@H](CCCCN)NC(=O)[C@@H]2CCCN2C(=O)[C@H]([C@@H](C)O)NC(=O)CNC(=O)[C@H](CC(=O)O)NC(=O)CNC(=O)[C@H]([C@@H](C)O)NC(=O)[C@H](Cc2ccccc2)NC(=O)[C@H]([C@@H](C)O)NC(=O)[C@H]([C@@H](C)O)NC(=O)[C@H](CCC(=O)O)NC(=O)[C@H](CC(C)C)NC(=O)[C@H](Cc2c[nH]cn2)NC(=O)[C@H](Cc2ccc(O)cc2)NC(=O)[C@H](CCC(N)=O)NC(=O)CNC(=O)[C@H]2CCCN2C(=O)[C@H](CCC(N)=O)NC(=O)[C@H]([C@@H](C)O)NC(=O)[C@H](C(C)C)NC(=O)[C@H](CCCNC(=N)N)NC1=O [compound 24] (cyclo(YHLETTFTGDGTPKTIRVTQ[dP]GQ))
Ki (PSD-95-PDZ2 [1]): 1470 nM | Relative Ki (Ki mut/Ki WT) (PSD-95-PDZ2 [1]): 0.98 | Normalized SPOT fluorescence (Mut/WT) (PSD-95-PDZ2 [2]): 1.32

CC[C@H](C)[C@@H]1NC(=O)[C@H]([C@@H](C)O)NC(=O)[C@H](CCCCN)NC(=O)[C@@H]2CCCN2C(=O)[C@H]([C@@H](C)O)NC(=O)CNC(=O)[C@H](CC(=O)O)NC(=O)CNC(=O)[C@H]([C@@H](C)O)NC(=O)[C@H](Cc2ccccc2)NC(=O)[C@H]([C@@H](C)O)NC(=O)[C@H]([C@@H](C)O)NC(=O)[C@H](CCC(=O)O)NC(=O)[C@H](CC(C)C)NC(=O)[C@H](Cc2c[nH]cn2)NC(=O)[C@H](C)NC(=O)[C@H](CCC(N)=O)NC(=O)CNC(=O)[C@H]2CCCN2C(=O)[C@H](CCC(N)=O)NC(=O)[C@H]([C@@H](C)O)NC(=O)[C@H](C(C)C)NC(=O)[C@H](CCCNC(=N)N)NC1=O [compound 55] (cyclo(AHLETTFTGDGTPKTIRVTQ[dP]GQ))
Ki (PSD-95-PDZ2 [1]): 1500 nM | Relative Ki (Ki mut/Ki WT) (PSD-95-PDZ2 [1]): 1.00 | Normalized SPOT fluorescence (Mut/WT) (PSD-95-PDZ2 [2]): 0.97

CC[C@H](C)[C@@H]1NC(=O)[C@H]([C@@H](C)O)NC(=O)[C@H](CCCCN)NC(=O)[C@@H]2CCCN2C(=O)[C@H]([C@@H](C)O)NC(=O)[C@@H]2CCCN2C(=O)[C@H](CC(=O)O)NC(=O)CNC(=O)[C@H]([C@@H](C)O)NC(=O)[C@H](Cc2ccccc2)NC(=O)[C@H]([C@@H](C)O)NC(=O)[C@H]([C@@H](C)O)NC(=O)[C@H](CCC(=O)O)NC(=O)[C@H](CC(C)C)NC(=O)[C@H](Cc2c[nH]cn2)NC(=O)[C@H]([C@@H](C)O)NC(=O)[C@H](CCC(N)=O)NC(=O)CNC(=O)[C@H]2CCCN2C(=O)[C@H](CCC(N)=O)NC(=O)[C@H]([C@@H](C)O)NC(=O)[C@H](C(C)C)NC(=O)[C@H](CCCNC(=N)N)NC1=O [compound 30] (cyclo(THLETTFTGDPTPKTIRVTQ[dP]GQ))
Ki (PSD-95-PDZ2 [1]): 420 nM | Relative Ki (Ki mut/Ki WT) (PSD-95-PDZ2 [1]): 0.28 | Normalized SPOT fluorescence (Mut/WT) (PSD-95-PDZ2 [2]): 2.33

CC[C@H](C)[C@@H]1NC(=O)[C@H]([C@@H](C)O)NC(=O)[C@H](CCCCN)NC(=O)[C@@H]2CCCN2C(=O)[C@H]([C@@H](C)O)NC(=O)CNC(=O)[C@H](CC(=O)O)NC(=O)CNC(=O)[C@H](Cc2c[nH]cn2)NC(=O)[C@H](Cc2ccccc2)NC(=O)[C@H]([C@@H](C)O)NC(=O)[C@H]([C@@H](C)O)NC(=O)[C@H](CCC(=O)O)NC(=O)[C@H](CC(C)C)NC(=O)[C@H](Cc2c[nH]cn2)NC(=O)[C@H]([C@@H](C)O)NC(=O)[C@H](CCC(N)=O)NC(=O)CNC(=O)[C@H]2CCCN2C(=O)[C@H](CCC(N)=O)NC(=O)[C@H]([C@@H](C)O)NC(=O)[C@H](C(C)C)NC(=O)[C@H](CCCNC(=N)N)NC1=O [compound 20] (cyclo(THLETTFHGDGTPKTIRVTQ[dP]GQ))
Ki (PSD-95-PDZ2 [1]): 1980 nM | Relative Ki (Ki mut/Ki WT) (PSD-95-PDZ2 [1]): 1.32 | Normalized SPOT fluorescence (Mut/WT) (PSD-95-PDZ2 [2]): 1.49

CC[C@H](C)[C@@H]1NC(=O)[C@H]([C@@H](C)O)NC(=O)[C@H](CCCCN)NC(=O)[C@@H]2CCCN2C(=O)[C@H](CC(=O)O)NC(=O)CNC(=O)[C@H](CC(=O)O)NC(=O)CNC(=O)[C@H](Cc2c[nH]c3ccccc23)NC(=O)[C@H](Cc2ccccc2)NC(=O)[C@H]([C@@H](C)O)NC(=O)[C@H]([C@@H](C)O)NC(=O)[C@H](CCC(=O)O)NC(=O)[C@H](CC(C)C)NC(=O)[C@H](Cc2c[nH]cn2)NC(=O)[C@H]([C@@H](C)O)NC(=O)[C@H](CCC(N)=O)NC(=O)CNC(=O)[C@H]2CCCN2C(=O)[C@H](CCC(N)=O)NC(=O)[C@H]([C@@H](C)O)NC(=O)[C@H](C(C)C)NC(=O)[C@H](CCCNC(=N)N)NC1=O [compound 130] (cyclo(THLETTFWGDGDPKTIRVTQ[dP]GQ))
Ki (PSD-95-PDZ2 [1]): 650 nM

CC[C@H](C)[C@@H]1NC(=O)[C@H]([C@@H](C)O)NC(=O)[C@H](CCCCN)NC(=O)[C@@H]2CCCN2C(=O)[C@H]([C@@H](C)O)NC(=O)CNC(=O)[C@H](CC(=O)O)NC(=O)CNC(=O)[C@H]([C@@H](C)O)NC(=O)[C@H](Cc2ccccc2)NC(=O)[C@H]([C@@H](C)O)NC(=O)[C@H](CO)NC(=O)[C@H](CCC(=O)O)NC(=O)[C@H](CC(C)C)NC(=O)[C@H](Cc2c[nH]cn2)NC(=O)[C@H]([C@@H](C)O)NC(=O)[C@H](CCC(N)=O)NC(=O)CNC(=O)[C@H]2CCCN2C(=O)[C@H](CCC(N)=O)NC(=O)[C@H]([C@@H](C)O)NC(=O)[C@H](C(C)C)NC(=O)[C@H](CCCNC(=N)N)NC1=O [compound 52] (cyclo(THLESTFTGDGTPKTIRVTQ[dP]GQ))
Relative Ki (Ki mut/Ki WT) (PSD-95-PDZ2 [1]): 2.51

CC[C@H](C)[C@@H]1NC(=O)[C@H]([C@@H](C)O)NC(=O)[C@H](CCCCN)NC(=O)[C@@H]2CCCN2C(=O)[C@H]([C@@H](C)O)NC(=O)CNC(=O)[C@H](CC(=O)O)NC(=O)CNC(=O)[C@H]([C@@H](C)O)NC(=O)[C@H](Cc2ccccc2)NC(=O)[C@H]([C@@H](C)O)NC(=O)[C@H]([C@@H](C)O)NC(=O)[C@H](CCC(=O)O)NC(=O)[C@H](CC(C)C)NC(=O)[C@H](Cc2c[nH]cn2)NC(=O)[C@H]([C@@H](C)O)NC(=O)[C@H](CCC(N)=O)NC(=O)CNC(=O)[C@H]2CCCN2C(=O)[C@H](CCC(N)=O)N(C)C(=O)[C@H]([C@@H](C)O)NC(=O)[C@H](C(C)C)NC(=O)[C@H](CCCNC(=N)N)NC1=O [compound 102]
Ki (PSD-95-PDZ2 [1]): 2200 nM
